A short description of data set [1]: Cytotoxicity against normal cell line (MTT). The format is cell-based, human. The note with it: WI-38 normal human diploid cells; normal human diploid WI-38 cells, MTT.
Data set [2] deals with normal human diploid cell line (WI-38). As to the kind of experiment: Cytotoxicity against normal cell line (MTT). Type of data set: cell-based. Particulars: for Selectivity index (SI), A-549: WI-38 vs A-549; for Selectivity index (SI), HT-29: WI-38 vs HT-29; for Selectivity index (SI), MCF-7: WI-38 vs MCF-7; for Selectivity index (SI), Panc-1: WI-38 vs Panc-1.
The test system of data set [3] is Panc-1 (pancreatic cancer). Put plainly: Antiproliferative assay, Panc-1. The format is cell-based. The note with it: Homo sapiens; Panc-1 pancreatic cancer cells; read-out: Antiproliferative activity IC50 ± SEM, Panc-1. From the text:
The dose–response experiments established the IC50 values for the new compounds. The given findings were obtained from at least two distinct studies, each comprising three repeats per concentration. Appendix A (SI File) provides experimental details.[38,39]
The MTT assay[43] was utilized to assess the antiproliferative effects of compounds 10a–l on four human cancer cell lines: HT-29 (colon cancer), Panc-1 (pancreatic cancer), A-549 (lung cancer), and MCF-7 (breast cancer). […]
(§1) 4.2.2. Assay for antiproliferative effect
To explore the antiproliferative potential of compounds propidium iodide fluorescence assay was performed using different cell lines such as Panc-1 (pancreas cancer cell line), MCF-7 (breast cancer cell line), HT-29 (colon cancer cell line) and A-549 (epithelial cancer cell line), respectively. To calculate the total nuclear DNA, a fluorescent dye (propidium iodide, PI) is used which can attach to the DNA, thus offering a quick and precise technique. PI cannot pass through the cell membrane and its signal intensity can be considered as directly proportional to quantity of cellular DNA. Cells whose cell membranes are damaged or have changed permeability are counted as dead ones. The assay was performed by seeding the cells of different cell lines at a density of 3000-7500 cells/well (in 200μl medium) in culture plates followed by incubation for 24h at 37 °C in humidified 5%CO2/95% air atmospheric conditions. The medium was removed; the compounds were added to the plates at 10 μM concentrations (in 0.1% DMSO) in triplicates, followed by incubation for 48h. DMSO (0.1%) was used as control. After incubation, medium was removed followed by the addition of PI (25 μl, 50μg/mL in water/medium) to each well of the plates. At - 80 °C, the plates were allowed to freeze for 24 h, followed by thawing at 25 °C. A fluorometer (Polar-Star BMG Tech) was used to record the readings at excitation and emission wavelengths of 530 and 620 nm for each well. The percentage cytotoxicity of compounds was calculated using […]
Where ATC= Absorbance of treated cells and AC= Absorbance of control. Erlotinib was used as positive control in the assay. […]

The test system of data set [4] is caspase-9. As to the kind of experiment: Caspase-9 activation assay in MCF-7 cells. The note with it: for Caspase-9 Fold change: vs untreated control. Type of data set: cell-based, human. How it is done:
Compounds10k and 10l were tested as caspases-3, 8, 9, Bax and p53 activators and as down-regulators of the anti-apoptotic protein Bcl2 against the MCF-7 breast cancer cell line.[41] Appendix A gives more details.
To elucidate the apoptotic processes of compounds 10k and 10l, whether via the intrinsic or extrinsic pathway, their impacts on caspase-8 and caspase-9 were evaluated. […] This signifies the activation of both intrinsic and extrinsic pathways (Table 5).
4.2.6. Caspase-8/9 activation assay
Cells were obtained from American Type Culture Collection, cells were grown in RPMI 1640 containing 10% fetal bovine serum at 37°C, stimulated with the compounds to be tested for caspase 8/9, and lysed with Cell Extraction Buffer. This lysate was diluted in Standard Diluent Buffer over the range of the assay and measured for human active caspase-8/9 content. (Cells are Plated in a density of 1.2 – 1.8 × 10,000 cells/well in a volume of 100µl complete growth medium + 100 ul of the tested compound per well in a 96-well plate for 24 hours before the enzyme assay). The absorbance of each microwell was read on a spectro-photometer at 450 nm. […]

Data set [5] has as its system four human cancer cell lines (A-549, MCF-7, Panc-1, HT-29). Put plainly: Antiproliferative assay, average over four cancer cell lines. Type of data set: cell-based. Particulars: for GI50: Homo sapiens, average IC50 across A-549, MCF-7, Panc-1, HT-29. The procedure:
The given findings were obtained from at least two distinct studies, each comprising three repeats per concentration. Appendix A (SI File) provides experimental details.[38,39] […]
as §1
To explore the antiproliferative potential of compounds propidium iodide fluorescence assay was performed using different cell lines such as Panc-1 (pancreas cancer cell line), MCF-7 (breast […]
respectively. To calculate the total nuclear DNA, a fluorescent dye (propidium iodide, PI) is used which can attach to the DNA, thus offering a quick and precise technique. PI cannot pass through the cell membrane and its signal intensity can be considered as directly proportional to quantity of cellular DNA. Cells whose cell membranes are damaged or have changed permeability are counted as dead ones. The assay was performed by seeding the cells of different cell lines at a density of 3000-7500 cells/well (in 200μl medium) in culture plates followed by incubation for 24h at 37 °C […]
The medium was removed; the compounds were added to the plates at 10 μM concentrations (in 0.1% DMSO) in triplicates, followed by incubation for 48h. DMSO (0.1%) was used as control. After incubation, medium was removed followed by the addition of PI (25 μl, 50μg/mL in water/medium) to each well of the plates. At - 80 °C, the plates were allowed to freeze for 24 h, followed by thawing at 25 °C. A fluorometer (Polar-Star BMG Tech) was used to record the readings at excitation and emission wavelengths of 530 and 620 nm for each well. The percentage cytotoxicity of compounds was calculated using […]
Where ATC= Absorbance of treated cells and AC= Absorbance of control. […]
positive control in the assay. […]

By IC50 is commonly meant the point on the concentration scale where inhibition reaches its midpoint. A word on the GI50: it is the concentration at which growth is held to half of that of the control. `COc1ccc(-c2nc(SCc3nc(-c4ccc(Cl)cc4)no3)[nH]c(=O)c2C#N)cc1` [Compound 10k, 2-(((3-(4-Chlorophenyl)-1,2,4-oxadiazol-5-yl)methyl)thio)-4-(4-methoxyphenyl)-6-oxo-1,6-dihydropyrimidine-5-carbonitrile] showed an IC50 in data set [1] of more than 0.2 µM. Moreover, in data set [2], the “Selectivity index (SI), A-549” value is reported as more than 8.0; the “Selectivity index (SI), HT-29” value is more than 8.0; the “Selectivity index (SI), MCF-7” value is recorded as more than 10.0; the “Selectivity index (SI), Panc-1” value is listed as more than 9.0. Besides, the IC50 in data set [3] stood at 0.022 ± 0.001 µM. Moreover, in data set [4], the “Caspase-9 Conc” value came out at 24 ± 1 ng/mL and the “Caspase-9 Fold change” value amounted to 24 fold. Further, the “Potency relative to erlotinib, the other three cell lines” value in data set [5] (A-549, Panc-1, HT-29, greater potency than erlotinib) came to 1.3 fold. The molecule also had a GI50 in data set [5] of 0.022 µM.

Consider `COc1ccc(-c2noc(CSc3nc(-c4ccc(OC)cc4)c(C#N)c(=O)[nH]3)n2)cc1` [Compound 10l, 2-(((3-(4-Methoxyphenyl)-1,2,4-oxadiazol-5-yl)methyl)thio)-4-(4-methoxyphenyl)-6-oxo-1,6-dihydropyrimidine-5-carbonitrile], for which the concentration for half-maximal inhibition (IC50) in data set [1] was more than 0.2 µM. Further, in data set [2], the “Selectivity index (SI), A-549” value is given as more than 7.0; the “Selectivity index (SI), HT-29” value is reported as more than 7.0; the “Selectivity index (SI), MCF-7” value was more than 9.0; the “Selectivity index (SI), Panc-1” value is listed as more than 7.0. Also, the IC50 in data set [3] amounted to 0.026 ± 0.001 µM. Further, in data set [4], the “Caspase-9 Conc” value was determined as 22 ± 1 ng/mL and the “Caspase-9 Fold change” value was 22 fold. In addition, the GI50 in data set [5] worked out at 0.026 µM.
